How the values were obtained:
Format in all cases: in vivo
[1] = test system: corn; experiment: Test Example 4: effect on crop by soil treatment (symbol c); settings: for c: corn, effect grade on crop: 320 g/ha
In short: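 Greenhouse culture at 25° C. to 30° C. followed sowing of seed in spots on sterilized diluvial soil with a soil cover close to 1.5 cm thick.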

[2] = test system: Cyperus difformis; experiment: Test Example 3: herbicidal effect by foliage application, Wagner pot (symbol E); settings: application herbicide amount 320 g/ha
In short: (§1)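 Herbicidal activity was rated three weeks after a foliar spray of diluted emulsion concentrate, applied at a predetermined dose to plants grown for 14 days from seed in waterlogged alluvial soil within a 25–30 °C greenhouse.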

[3] = test system: Stellaria media; experiment: Test Example 5: herbicidal effect by foliage application, plastic box (symbol P); settings: 320 g/ha, 3 weeks after application
In short: (§2)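 Visual herbicidal score, taken three weeks post-application, of seedlings sprayed on the foliage with water-diluted emulsion at a predetermined amount; plants were 14 days old, greenhouse-raised at 25° C. to 30° C.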

[4] = test system: wheat; experiment: Test Example 5: effect on crop by foliage application, plastic box (symbol e); settings: 320 g/ha, 3 weeks after application
In short: (§3)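 Soil: sterilized diluvial. Container: plastic box, 21 × 13 cm, 7 cm deep. Sowing: spot-like, ~1.5 cm cover. Growth: greenhouse, 25° C. to 30° C.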

[5] = test system: Abutilon theophrasti; experiment: Test Example 5: herbicidal effect by foliage application, plastic box (symbol M); settings: 320 g/ha, 3 weeks after application
In short: as §2

[6] = test system: corn; experiment: Test Example 5: effect on crop by foliage application, plastic box (symbol c); settings: 320 g/ha, 3 weeks after application
In short: as §3

[7] = test system: rapeseed; experiment: Test Example 5: effect on crop by foliage application, plastic box (symbol g); settings: 320 g/ha, 3 weeks after application
In short: as §3

[8] = test system: Avena fatua; experiment: Test Example 5: herbicidal effect by foliage application, plastic box (symbol I); settings: 320 g/ha, 3 weeks after application
In short: as §2

[9] = test system: directly sowed rice plant; experiment: Test Example 3: effect on crop by foliage application, Wagner pot (symbol b); settings: application herbicide amount 320 g/ha
In short: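 Wagner pot (1/10000 are), alluvial soil, submerged 0.1–0.5 cm; sown E. crus-galli var. crus-galli, L. chinensis, C. difformis, rice; greenhouse 25–30 °C.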

[10] = test system: beet; experiment: Test Example 5: effect on crop by foliage application, plastic box (symbol f); settings: 320 g/ha, 3 weeks after application
In short: as §3

[11] = test system: Amaranthus retroflexus; experiment: Test Example 4: herbicidal effect by soil treatment (symbol N); settings: for N: Amaranthus retroflexus, herbicidal effect grade: 320 g/ha
In short: (§4)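 Seeds were sown in sterilized diluvial soil, covered with about 1.5 cm of soil, and the soil surface was sprayed with a water-diluted emulsion of the compound at a predetermined rate. Plants grew in a greenhouse at 25° C. to 30° C.; effects were scored visually 3 weeks after application.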

[12] = test system: Lolium multiflorum Lam.; experiment: Test Example 5: herbicidal effect by foliage application, plastic box (symbol K); settings: 320 g/ha, 3 weeks after application
In short: as §2

[13] = test system: Digitaria ciliaris; experiment: Test Example 4: herbicidal effect by soil treatment (symbol F); settings: for F: Digitaria ciliaris, herbicidal effect grade: 320 g/ha
In short: as §4

[14] = test system: soybean; experiment: Test Example 4: effect on crop by soil treatment (symbol d); settings: for d: soybean, effect grade on crop: 320 g/ha
In short: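 Crop seeds, among them rice, wheat, beet and rapeseed, were sown in sterilized diluvial soil and covered with about 1.5 cm of soil. Boxes were kept in a greenhouse at 25° C. to 30° C. for plant growth.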

[15] = test system: Abutilon theophrasti; experiment: Test Example 4: herbicidal effect by soil treatment (symbol M); settings: for M: Abutilon theophrasti, herbicidal effect grade: 320 g/ha
In short: as §4

[16] = test system: Chenopodium album; experiment: Test Example 5: herbicidal effect by foliage application, plastic box (symbol O); settings: 320 g/ha, 3 weeks after application
In short: as §2

[17] = test system: Echinochloa crus-galli var. crus-galli; experiment: Test Example 4: herbicidal effect by soil treatment (symbol H); settings: for H: Echinochloa crus-galli var. crus-galli, herbicidal effect grade: 320 g/ha
In short: as §4

[18] = test system: Lolium multiflorum Lam.; experiment: Test Example 4: herbicidal effect by soil treatment (symbol K); settings: for K: Lolium multiflorum Lam., herbicidal effect grade: 320 g/ha
In short: as §4

[19] = test system: Setaria viridis; experiment: Test Example 5: herbicidal effect by foliage application, plastic box (symbol G); settings: 320 g/ha, 3 weeks after application
In short: as §2

[20] = test system: Leptochloa chinensis; experiment: Test Example 3: herbicidal effect by foliage application, Wagner pot (symbol D); settings: application herbicide amount 320 g/ha
In short: as §1

[21] = test system: Apera spica-venti; experiment: Test Example 5: herbicidal effect by foliage application, plastic box (symbol L); settings: 320 g/ha, 3 weeks after application
In short: as §2

[22] = application herbicide amount 320 g/ha

| Compound | herbicidal effect on E, grade 0-5 [2] | effect on crop b (directly sowed rice plant), grade 0-5 [9] | herbicidal effect on D (Leptochloa chinensis), grade 0-5 [20] | c: corn, effect grade on crop [1] | P: Stellaria media, herbicidal effect (criteria 0-5) [3] | e: wheat, effect on crop (criteria 0-5) [4] | M: Abutilon theophrasti, herbicidal effect (criteria 0-5) [5] | c: corn, effect on crop (criteria 0-5) [6] | g: rapeseed, effect on crop (criteria 0-5) [7] | I: Avena fatua, herbicidal effect (criteria 0-5) [8] | f: beet, effect on crop (criteria 0-5) [10] | N: Amaranthus retroflexus, herbicidal effect grade [11] | K: Lolium multiflorum Lam., herbicidal effect (criteria 0-5) [12] | F: Digitaria ciliaris, herbicidal effect grade [13] | d: soybean, effect grade on crop [14] | M: Abutilon theophrasti, herbicidal effect grade [15] | O: Chenopodium album, herbicidal effect (criteria 0-5) [16] | H: Echinochloa crus-galli var. crus-galli, herbicidal effect grade [17] | K: Lolium multiflorum Lam., herbicidal effect grade [18] | G: Setaria viridis, herbicidal effect (criteria 0-5) [19] | further results |
| --- | --- | --- | --- | --- | --- | --- | --- | --- | --- | --- | --- | --- | --- | --- | --- | --- | --- | --- | --- | --- | --- |
| CON=C(C)CC1CC(OCC#N)=C(c2c(C)cc(C)cc2C)C1=O (stereo not drawn) [1-013] | 0 (Herbicidal ratio of 5% or lower (almost no effect)) | 0 (Herbicidal ratio of 5% or lower (almost no effect)) | 2 (Herbicidal ratio of 20% or higher and lower than 40%) | – | – | – | – | – | – | – | – | – | – | – | – | – | – | – | – | – | c (corn) effect on crop grade [1, 22]: 0 (Herbicidal ratio of 5% or lower (almost no effect)); P: Stellaria media, herbicidal effect grade [3]: 0 (Herbicidal ratio of 5% or lower (almost no effect)); e: wheat, effect on crop grade [4]: 0 (Herbicidal ratio of 5% or lower (almost no effect)); M: Abutilon theophrasti, herbicidal effect grade [5]: 0 (Herbicidal ratio of 5% or lower (almost no effect)); c: corn, effect on crop grade [6]: 0 (Herbicidal ratio of 5% or lower (almost no effect)); g: rapeseed, effect on crop grade [7]: 4 (Herbicidal ratio of 70% or higher and lower than 90%); I: Avena fatua, herbicidal effect grade [8]: 0 (Herbicidal ratio of 5% or lower (almost no effect)); f: beet, effect on crop grade [10]: 0 (Herbicidal ratio of 5% or lower (almost no effect)); N (Amaranthus retroflexus) herbicidal effect grade [11, 22]: 0 (Herbicidal ratio of 5% or lower (almost no effect)); K: Lolium multiflorum Lam., herbicidal effect grade [12]: 5 (Herbicidal ratio of 90% or more (almost completely withered)); F (Digitaria ciliaris) herbicidal effect grade [13, 22]: 0 (Herbicidal ratio of 5% or lower (almost no effect)); d (soybean) effect on crop grade [14, 22]: 0 (Herbicidal ratio of 5% or lower (almost no effect)); M (Abutilon theophrasti) herbicidal effect grade [15, 22]: 0 (Herbicidal ratio of 5% or lower (almost no effect)); O: Chenopodium album, herbicidal effect grade [16]: 0 (Herbicidal ratio of 5% or lower (almost no effect)); H (Echinochloa crus-galli var. crus-galli) herbicidal effect grade [17, 22]: 0 (Herbicidal ratio of 5% or lower (almost no effect)); K (Lolium multiflorum Lam.) herbicidal effect grade [18, 22]: 0 (Herbicidal ratio of 5% or lower (almost no effect)); G: Setaria viridis, herbicidal effect grade [19]: 0 (Herbicidal ratio of 5% or lower (almost no effect)); L: Apera spica-venti, herbicidal effect grade [21]: 4 (Herbicidal ratio of 70% or higher and lower than 90%) |
| CON=C(C)CC1CC(OC(=O)C(C)(C)c2ccc(Cl)cc2)=C(c2c(C)cc(C)cc2C)C1=O (stereo not drawn) [1-148] | 4 (Herbicidal ratio of 70% or higher and lower than 90%) | 5 (Herbicidal ratio of 90% or more (almost completely withered)) | 5 (Herbicidal ratio of 90% or more (almost completely withered)) | 3 (Herbicidal ratio of 40% or higher and lower than 70%) | 3 (Herbicidal ratio of 40% or higher and lower than 70%) | 5 (Herbicidal ratio of 90% or more (almost completely withered)) | 4 (Herbicidal ratio of 70% or higher and lower than 90%) | 4 (Herbicidal ratio of 70% or higher and lower than 90%) | 5 (Herbicidal ratio of 90% or more (almost completely withered)) | 5 (Herbicidal ratio of 90% or more (almost completely withered)) | 3 (Herbicidal ratio of 40% or higher and lower than 70%) | 2 (Herbicidal ratio of 20% or higher and lower than 40%) | 5 (Herbicidal ratio of 90% or more (almost completely withered)) | 5 (Herbicidal ratio of 90% or more (almost completely withered)) | 0 (Herbicidal ratio of 5% or lower (almost no effect)) | 5 (Herbicidal ratio of 90% or more (almost completely withered)) | 1 (Herbicidal ratio of 5% or higher and lower than 20%) | 5 (Herbicidal ratio of 90% or more (almost completely withered)) | 5 (Herbicidal ratio of 90% or more (almost completely withered)) | 5 (Herbicidal ratio of 90% or more (almost completely withered)) | L: Apera spica-venti, herbicidal effect (criteria 0-5) [21]: 5 (Herbicidal ratio of 90% or more (almost completely withered)) |
| CON=C(C)CC1CC(OC(=O)c2ccc(C(F)(F)F)cc2)=C(c2c(C)cc(C)cc2C)C1=O (stereo not drawn) [1-149] | 5 (Herbicidal ratio of 90% or more (almost completely withered)) | 5 (Herbicidal ratio of 90% or more (almost completely withered)) | 5 (Herbicidal ratio of 90% or more (almost completely withered)) | 2 (Herbicidal ratio of 20% or higher and lower than 40%) | 3 (Herbicidal ratio of 40% or higher and lower than 70%) | 5 (Herbicidal ratio of 90% or more (almost completely withered)) | 4 (Herbicidal ratio of 70% or higher and lower than 90%) | 4 (Herbicidal ratio of 70% or higher and lower than 90%) | 4 (Herbicidal ratio of 70% or higher and lower than 90%) | 5 (Herbicidal ratio of 90% or more (almost completely withered)) | 2 (Herbicidal ratio of 20% or higher and lower than 40%) | 4 (Herbicidal ratio of 70% or higher and lower than 90%) | 5 (Herbicidal ratio of 90% or more (almost completely withered)) | 5 (Herbicidal ratio of 90% or more (almost completely withered)) | 0 (Herbicidal ratio of 5% or lower (almost no effect)) | 5 (Herbicidal ratio of 90% or more (almost completely withered)) | 2 (Herbicidal ratio of 20% or higher and lower than 40%) | 5 (Herbicidal ratio of 90% or more (almost completely withered)) | 5 (Herbicidal ratio of 90% or more (almost completely withered)) | 5 (Herbicidal ratio of 90% or more (almost completely withered)) | L: Apera spica-venti, herbicidal effect (criteria 0-5) [21]: 5 (Herbicidal ratio of 90% or more (almost completely withered)) |
| CON=C(C)CC1CC(OC(=O)N2CCN(C)CC2)=C(c2c(C)cc(C)cc2C)C1=O (stereo not drawn) [1-152] | 5 (Herbicidal ratio of 90% or more (almost completely withered)) | 5 (Herbicidal ratio of 90% or more (almost completely withered)) | 5 (Herbicidal ratio of 90% or more (almost completely withered)) | 0 (Herbicidal ratio of 5% or lower (almost no effect)) | 0 (Herbicidal ratio of 5% or lower (almost no effect)) | 3 (Herbicidal ratio of 40% or higher and lower than 70%) | 4 (Herbicidal ratio of 70% or higher and lower than 90%) | 2 (Herbicidal ratio of 20% or higher and lower than 40%) | 4 (Herbicidal ratio of 70% or higher and lower than 90%) | 4 (Herbicidal ratio of 70% or higher and lower than 90%) | 0 (Herbicidal ratio of 5% or lower (almost no effect)) | 0 (Herbicidal ratio of 5% or lower (almost no effect)) | 5 (Herbicidal ratio of 90% or more (almost completely withered)) | 0 (Herbicidal ratio of 5% or lower (almost no effect)) | 0 (Herbicidal ratio of 5% or lower (almost no effect)) | 0 (Herbicidal ratio of 5% or lower (almost no effect)) | 0 (Herbicidal ratio of 5% or lower (almost no effect)) | 0 (Herbicidal ratio of 5% or lower (almost no effect)) | 2 (Herbicidal ratio of 20% or higher and lower than 40%) | 5 (Herbicidal ratio of 90% or more (almost completely withered)) | L: Apera spica-venti, herbicidal effect (criteria 0-5) [21]: 5 (Herbicidal ratio of 90% or more (almost completely withered)) |

From patent US11000033B2, “Ketone or oxime compound, and herbicide” (NISSAN CHEMICAL CORPORATION, priority 2014, dated 2021)
